Experimental data taken from patent US20210283163A1, “COMPOSITIONS AND METHODS FOR THE TREATMENT OF ACUTE AND CHRONIC PRURITIS” (Duke University, priority 2018, published 2021).
Where two headings read alike, the source gives them in different places.

What was measured:
[1] = system: CTCL mice; test: Mouse CTCL xenograft model of chronic itch; assay type: in vivo; conditions: given 20 days after Myla cell inoculation; for effect on CTCL-evoked chronic itch: hsa-miR-711 inhibitor 100 μM, HC030031 200 μM, A967079 50 μM, peptides 2 mM
Protocol: Mouse CTCL Xenograft Model of Chronic Itch. We developed a murine xenograft model of cutaneous T cell lymphoma (CTCL) using immune-deficient mice (NOD.CB17-Prkdcscid, 8-10 weeks old, male). CD4^+ MyLa cell line was purchased from Sigma (Ca #95051032). The cell line was established from a plaque biopsy of a person with mycosis fungoides stage II by inclusion of IL-2 and IL-4 in the culture medium. CTCL was generated via intradermal injection of CD4^+ Myla cells (1×10^5 cells/μl, 100 μL) on the nape of the neck. Tumor growth was assessed for 40 days by measurements of tumor diameters.
(§1) Behavioral Assessment for Scratching (Itch) and Wiping (Pain). Mice were shaved on the cheek or nape after a brief anesthesia with isoflurane. Before experiments, mice were habituated in small plastic chambers (14×18×12 cm) daily for two days. The room temperature and humidity remained stable for all the experiments. […] After the injection, the number of scratches in 60 min was counted. A scratch was counted when a mouse lifted its hind paw to scratch the shaved region and returned the paw to the floor or to the mouth. A bout of wiping was defined as a continuous wiping movement with a forepaw directing at the area of the injection area (Shimada and LaMotte, Pain 2008, 139, 681-687). Scratching and wiping behavior was videoed for 30 min or 60 min using Sony HDR-CX610 camera. The video was subsequently played back offline and the numbers of scratches and wipes were quantified in a blinded manner.
Generation of Myla Stable Cell Line Expressing miR-711 Inhibitor. CD4^+ Myla cells were plated at a density of 2×10^5 cells/mL in 2 mL culture media in 6-well plates. For each well, 20 μL of the MISSION Lenti microRNA Inhibitor (hsa-miR-711) lentivirus (Sigma) with a titer of 2.6×10^7 Tu/mL were added. Cell mixtures were incubated at 37° C. for 48 hr, washed with PBS three times, and re-suspended in fresh culture media, and 24 hr later, 1 μg/mL puromycin was added to the cells to select stably transduced cell populations. We tried to grow and passage the cells as much as necessary (usually 3 days) and maintained selection pressure by keeping 1 μg/mL puromycin in the medium. After 4 weeks, a large number of the cells were killed; the remaining cells retained the expression of the plasmid, which stably integrates into the genome of the targeted cells. These cells were used for inoculation to generate the CTCL model for testing the effects of miR-711 inhibitor on chronic itch and tumor growth.

[2] = system: mice; test: Persistent itch after intradermal adenovirus (AV) overexpression of hsa-miR-711; assay type: in vivo, mouse; conditions: 10 days after the AV injection, A-967079 50 μM, hsa-miR-711 inhibitor 100 μM, blocking peptide 2 μM
Protocol: as §1
miRNA Measurement by Quantitative Real-Time RT-PCR (qPCR). Total RNA was isolated from serum of CTCL mice or adenovirus-treated mice using Qiazol Lysis Reagent (QIAGEN) together with miRNeasy Serum/Plasma Kit (Park et al., Neuron 2014, 82, 47-54). All RNA samples were immediately used or kept at −80° C. until further processing. To convert mature miRNA into cDNA, 6 μl of total RNA solution were reverse transcribed using the miScript II RT Kit (including polyadenylation of miRNAs and reverse transcription using an oligo-dT that binds to a universal RT-sequence). Specific miRNA levels were quantified by qPCR using miScript SYBR Green Kit including miScript miRNA assay for hsa-miR-711, hsa-miR21, hsamiR155, and hsa-miR-326, together with the universal RT primer, according to the manufacturer's protocol (CFX96 Real-Time system, Bio-Rad). Relative quantities of miRNAs were calculated using the Ct value after normalization to control miRNAs. Caenorhabditis elegans miRNA-39 (cel-miRNA-39) was included as spiked-in control for extracellular miRNA.

[3] = system: naive mice; assay type: in vivo, mouse
Protocol: as §1

[4] = system: mice; test: Evans blue extravasation, neurogenic inflammation in a hind paw; assay type: in vivo, mouse; conditions: intraplantar, 10 μL; capsaicin 1 mM, AITC 5 mM, miR-711 1 mM
Protocol: Evans Blue Extravasation. To examine neurogenic inflammation in a hind paw (Han et al., Neuron 2016, 92, 1279-1293), mice were anesthetized with 5% isoflurane. Evans blue (50 mg/kg body weight) was given intravenously 10 min before neurogenic irritant application. […] Evans blue was extracted from the tissues by incubation in 400 μL formamide at 37° C. for 48 hr. Evans blue was quantified by measuring the optical density of the formamide extract at 620 nm. Absorbance was normalized to per gram of tissue weight.

[5] = system: TG neurons; test: Calcium imaging in TG neurons of Pirt-GCaMP3 mice; assay type: cell-based, mouse; conditions: histamine 500 μM, CQ 1000 μM, AITC 200 μM; for TG neurons responding (calcium): miR-711 50 μM, 204 neurons
Protocol: Primary Cultures of Mouse and Human Sensory Neurons. […] Cells were mechanically dissociated with a flame polished Pasteur pipette in the presence of 0.05% DNase I (Sigma).
Ca^2+ Imaging. […] The imaging buffer includes 140 mM NaCl, 10 mM D-(+)-Glucose, 1 mM MgCl2, 2 mM CaCl2, 5 mM KCl, 10 mM HEPES, pH=7.4, osmolarity=320 mOsm/L. Calcium signals were measured using green emitted light in a 3 s interval. Ca ^2+ signal amplitudes were presented as ΔF/F0=(Ft−F0)/F0 as ratio of fluorescence difference (Ft−F0) to basal value (F0). The average fluorescence intensity in the baseline period was taken as F0. Ca ^2+ imaging was also analyzed in HEK293-TRPA1 cell line after loading cells with […] fura2-AM (Invitrogen) for 40 min in the Ca^2+ imaging buffer. Ca^2+ imaging protocol was a ratio metric method with 340/380-nm wavelength light for dual excitation. Data were presented as ΔR/R0, determined as the fraction ΔR (Rt−R0) of the increase of a given ratio over baseline ratio (R0).

[6] = high concentrations, 5 and 10 mM, 5 μL
[7] = low concentrations, 10 and 100 μM

## CCC(=N\O)/C(C)=C/c1ccc(F)cc1 [A967079, (1E,3E)-1-(4-Fluorophenyl)-2-methyl-1-pentene-3-one oxime]
[1]
  effect on CTCL-evoked chronic itch: suppressed
[2]
  effect on hsa-miR-711 AV-induced persistent itch: Inhibition

## miR-711: mmu-miR-711: gggacccggggagagauguaag (SEQ ID NO: 5) (GGGACCCGGGGAGAGAUGUAAG; chemistry not given here)
[3]; 0.01 and 0.1 mM
  scratching after intradermal cheek injection: mild but significant scratching
[3]; Tlr7−/− mice versus WT
  miR-711-induced pruritus in knockout mice: unaltered
[3]; Trpa1−/− mice versus WT
  miR-711-induced acute itch in knockout mice: abrogated
[3]; all the concentrations tested
  pain (wiping) after intradermal cheek injection: failed to evoke pain (wiping)
[3]; compared with chloroquine (CQ) and histamine, first 60 sec
  onset (latency) of pruritus: very rapid, with a shorter latency
[3]; highest dose, 5 mM, 5 μL
  scratching after intradermal cheek injection: 395.2±32.8 bouts per hour
[3]; naive mice, 1 mM, 5 μL
  scratching (itch) after intradermal cheek injection: evoked marked scratching
[3]; naive mice, 1 mM, 5 μL, listed as mmu-miR-711
  scratching (itch) after intradermal cheek injection: able to evoke pruritus
[4]
  neurogenic inflammation in hind paws (Evans blue test): failed to elicit neurogenic inflammation
[5]
  TG neurons responding (calcium): 12.3%

## NH2-FRNELAYPVLTFGQL-COOH (H-FRNELAYPVLTFGQL-OH) [blocking peptide]
[1]; 2 mM
  duration of reduction of CTCL-evoked chronic itch: more than 5 hr
[1]
  effect on CTCL-evoked chronic itch: effectively reduced
[2]
  effect on hsa-miR-711 AV-induced persistent itch: Inhibition

## C=CCN=C=S [AITC]
[3]; [6]
  scratching after intradermal cheek injection: not scratching
  wiping after intradermal cheek injection: induced wiping
[3]; [7]
  itch after intradermal cheek injection: mild itch
  pain after intradermal cheek injection: no pain
[3]; naive mice, 1 mM, 5 μL
  scratching (itch) after intradermal cheek injection: induced both scratching and wiping
  wiping (pain) after intradermal cheek injection: induced both scratching and wiping
[4]
  neurogenic inflammation in hind paws (Evans blue test): elicited robust neurogenic inflammation
[5]
  miR-711-responsive TG neurons that also responded: 100%
  TG neurons responding (calcium): 32.4%
